What all share (type): in vivo
For one assay, the system named is crop plants. The assay is described as follows: Crop plant tolerance (greenhouse, pre- and post-emergence). The settings on record: visual scoring four to five weeks after application. Here is the method: In further greenhouse experiments, seeds of a relatively large number of crop plants and weeds are placed in sandy loam and covered with soil. Some of the pots are treated immediately as described in Section 1, while the remaining pots are placed in the greenhouse until the plants have developed two to three real leaves, and they are then sprayed with various dosages of substances of the formula (I) according to invention as described in Section 2. Four to five weeks after the application and standing time in the greenhouse, it is found by means of visual scoring that the compounds according to the invention leave dicotyledonous crops such as, for example, soybeans, cotton, oilseed rape, sugar beet and potatoes unharmed when applied pre- and post-emergence, even at high rates of active compound. In addition, some substances also leave graminaceous crops such as, for example, barley, wheat, rye, sorghum, corn or rice, unharmed.

The subject of assay [1] is harmful plants which are typical for rice crops. The assay is described as follows: Action against harmful plants in rice (paddy rice conditions). Note: test concentration or dose not given here. The settings on record: applied to the paddy water; approximately three weeks after application; Cyperus monti, Echinochloa crus-galli, Eleocharis acicularis, Sagittaria pygmaea. Here is the method: Transplanted and seeded rice and typical rice weeds are grown in the greenhouse until they have reached the three-leaf stage (Echinochloa 1.5-leaves) under paddy rice conditions (flooding level of the water: 2-3 cm) in closed plastic pots. They are then treated with the compounds according to the invention. To this end, the formulated active substances are suspended, dissolved or emulsified in water and applied to the paddy water of the test plants at various dosages by application by pouring.
After the treatment has been carried out in this way, the test plants are placed into the greenhouse under optimum growth conditions and are kept in this way over the entire experimental period.

Assay [2] concerns monocotyledonous and dicotyledonous weeds. The assay is described as follows: Post-emergence herbicidal action (greenhouse pot test). The note with it: post-emergence method; application rate of 0.5 kg or less of active substance per hectare; scored after approx. 3 to 4 weeks; Sinapis alba, Echinochloa crus-galli, Lolium multiflorum, Chrysanthemum segetum, Setaria spp., Abutilon theophrasti, Amaranthus retroflexus, Panicum miliaceum, Avena sativa. Here is the method:
Seeds or rhizone pieces of monocotyledonous and dicotyledonous weeds are placed in sandy loam in plastic pots, covered with soil and grown in the greenhouse under good growth conditions. Three weeks after sowing, the test plants are treated at the three-leaf stage. Various dosages of the compounds according to the invention, which are formulated as wettable powders or emulsion concentrates, are sprayed onto the green plant parts at an application rate of 600 to 800 l of water per ha (converted), and after the test plants have been left to stand in the greenhouse for approx. 3 to 4 weeks under optimum growth conditions, the effect of the preparations is scored visually by comparison with untreated controls. The compositions according to the invention also have good herbicidal post-emergence activity against a broad spectrum of economically important weed grasses and broad-leaved weeds.

Assay [3] relates to monocotyledonous and dicotyledonous weed plants. The assay is described as follows: Pre-emergence herbicidal action (greenhouse pot test). The settings on record: pre-emergence method; application rate of 0.5 kg and less of active substance per hectare; Sinapis alba, Chrysanthemum segetum, Avena sativa, Stellaria media, Echinochloa crus-galli, Lolium multiflorum, Setaria spp., Abutilon theophrasti, Amaranthus retrofluxus, Panicum miliaceum. An excerpt: Seeds or rhizome pieces of monocotyledonous and dicotyledonous weed plants are placed in sandy loam in plastic pots and covered with soil. The compounds according to the invention, which are formulated in the form of wettable powders or emulsion concentrates, are then applied to the surface of the soil cover as aqueous suspension or emulsion at various dosages with an application rate of 600 to 800 l of water/ha (converted).
After the treatment, the pots are placed into a greenhouse and kept under good growth conditions for the weeds. The plant or emergence damage is scored visually after the untreated controls have emerged. As shown by the test results, the compounds according to the invention have good herbicidal pre-emergence activity against a broad spectrum of weed grasses and broad-leaved weeds.

Take `CC1Cc2ccc(F)cc2C1Nc1ncnc(NC(=O)C(F)(F)F)n1` (stereo not drawn) [Example 285]: in the assay on crop plants, the “selectivity (crop plants versus weeds)” value is on record as “in some cases high selectivity”. The “herbicidal action against harmful plants typical for rice crops, scored visually” value in assay [1] is “very good herbicidal action”. Also, the “herbicidal action against harmful plants, scored visually” value in assay [2] and in assay [3] was “very good herbicidal action” each time.
In the case of `Cc1cc2c(cc1C)C(Nc1ncnc(N)n1)C(C)C2` (stereo not drawn) [Example 293], in the assay on crop plants, the “selectivity (crop plants versus weeds)” value is “in some cases high selectivity”. Further, the “herbicidal action against harmful plants typical for rice crops, scored visually” value in assay [1] is listed as “very good herbicidal action”. Also, the “herbicidal action against harmful plants, scored visually” value in assay [2] and in assay [3] was “very good herbicidal action” each time.
With `Cc1ccc2c(c1)C(Nc1ncnc(N)n1)CC2` (stereo not drawn) [Example 146], in the assay with crop plants, the “selectivity (crop plants versus weeds)” value is on record as “in some cases high selectivity”. Also, the “herbicidal action against harmful plants typical for rice crops, scored visually” value in assay [1] was “very good herbicidal action”. Besides, the “herbicidal action against harmful plants, scored visually” value in assay [2] and in assay [3] was “very good herbicidal action” in each case.

The values above are taken from patent US7479471B2, “2-Amino-4-bicyclylamino-6H-1,3,5-triazines, processes for their preparation and their use as herbicides and plant growth regulators” (Bayer CropScience GmbH, priority 2002, dated 2009).
